# Measured values reported in patent publication US20260274922A1, “SYNTHETIC ESTROGEN RECEPTOR (ER)-DERIVED PEPTIDE” (THE TEXAS A&M UNIVERSITY SYSTEM, priority 2023, published 2026).
# Where no end group is shown, it is not given here. The star is where a group is joined. FITC = O=C1OC2(c3ccc(O)cc3Oc3cc(O)ccc32)c2ccc(NC(=S)*)cc21
# What was measured:
# IRS1 protein domains = target: T1, IRS1 protein domains (Homo sapiens, UniProt P35568); assay: AF1 peptide and IRS1 protein interaction (co-immunoprecipitation, FITC signal); type: binding; details: HEK293 cells, 10 μM FITC-labelled peptide 3 h
# T1 construct: expressed in transfected cells; host or cells: HEK293
# T1 sequence (P35568 1-300): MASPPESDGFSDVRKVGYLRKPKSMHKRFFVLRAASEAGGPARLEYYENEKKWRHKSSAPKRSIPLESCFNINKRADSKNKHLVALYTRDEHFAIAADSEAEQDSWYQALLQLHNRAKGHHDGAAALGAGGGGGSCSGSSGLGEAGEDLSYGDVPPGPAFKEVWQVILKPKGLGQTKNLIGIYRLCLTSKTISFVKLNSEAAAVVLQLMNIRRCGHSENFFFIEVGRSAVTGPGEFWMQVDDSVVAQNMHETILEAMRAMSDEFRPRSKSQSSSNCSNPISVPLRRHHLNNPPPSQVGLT
# Experimental: AF1 peptide and IRS1 protein interaction. HEK293 cells were transfected with Flag-IRS1 or Flag-IRS1 truncated domains using lipofectamine 3000 for 30 h, followed by treatment of 10 μM control and AF1 peptides labelled with FITC fluorescence for 3 h. After 10 μM MG132 treatment for 1 h, cell protein was extracted, and Flag-labelled proteins were immunoprecipitated. The intensity of control and AF1 peptide was calculated through measuring FITC fluorescence signal with multiplex reader. The results were normalized using IgG group.
# [1] = test system: insulin signaling (IRS1, pAKT); assay: Insulin sensitivity in WT primary mouse hepatocytes (IRS1, insulin-stimulated AKT phosphorylation); type: cell-based
# Experimental: (§1) Primary hepatocytes isolation and cell culture. Primary hepatocytes were isolated. Male mice at age of 8-12 weeks were infused with a perfusion buffer A (calcium and magnesium-free HBSS supplemented with 10 mM HEPES, […], 1 mM glucose, and 1% penicillin-streptomycin, pH 7.4) through portal vein for 6-8 min. Then perfusion buffer A was changed to buffer B (calcium and magnesium-free HBSS supplemented with 10 mM HEPES, 1 mM CaCl2), 1 mM glucose, 1% penicillin-streptomycin, and 0.5 mg/mL collagenase II, pH 7.4). […] Liver cells were suspended and passed through a 70 μm cell strainer, followed by centrifuge at 1700 rpm for 2 min. Pellets were resuspended with Percoll at final concentration of 36% and centrifuged at 1800 rpm for 6 min. The hepatocyte pellet was washed and suspended with DMEM supplemented with 10% FBS and 1% penicillin-streptomycin in collagen-coated plates. The HepG2 cell line was purchased from Abcam and cultured with DMEM medium supplemented with 10% FBS and 1% penicillin-streptomycin in collagen-coated plates. The human embryo kidney (HEK) 293 cell line was purchased from Sigma and cultured with DMEM medium supplemented with 10% FBS and 1% penicillin-streptomycin. FBS-free DMEM medium was used to culture cells during the experiments.
# (§2) Co-immunoprecipitation and Western blotting analysis. […] Protein bands were detected using a ChemiDoc image system.
# [2] = test system: insulin signaling (IRS1, pAKT); assay: Insulin sensitivity in ERα deficient primary mouse hepatocytes; type: cell-based
# Experimental: as §1, §2
# [3] = test system: diet-induced obesity (DIO) mice; type: in vivo, mouse
# Experimental: Obese mouse models and AF1 peptide treatment. For the high-fat diet (HFD)-induced obese mouse model, the 6-8-week-old male mice were fed with HFD (HFD; 60% kcal from fat, D12492; Research diet, New Brunswick, NJ) for 11 weeks. Then mice received 5 mg/kg body weight control or AF1 peptide through retro orbital injection (twice per week; 5 weeks). For genetic obesity mouse model, the 8-week-old db/db mice were administered with 5 mg/kg body weight control or AF1 peptide through retro orbital injection (twice per week; 5 weeks). Glucose tolerance and insulin tolerance tests were performed in the fourth and fifth week after treatment, respectively. Body composition was measured using EchoMRI™ one day before sacrificing the mice.
# Glucose and insulin tolerance tests. For glucose tolerance tests, mice were fasted for 16 h and intraperitoneally (i.p.) injected with dextrose (1 g/kg body weight for mice fed with regular diet; 0.5 g/kg body weight for db/db mice or mice fed with HFD). For insulin tolerance tests, mice were fasted for 6 h and i.p. injected with insulin solution (1 U/kg body weight for male mice; 0.75 U/kg body weight for female mice). Blood glucose levels were measured using glucometer at indicated time points.
# RNA extraction and quantitative real-time PCR. Total RNA was extracted from livers or primary hepatocytes using TRIzol (Invitrogen, Thermo Fisher Scientific), purified with chloroform, 80% ethanol, isopropanol, and RNA column, eluted with RNase free water, and reverse transcribed into cDNA using iScript Reverse Transcription Supermix (Bio-Rad, Hercules, CA). Quantitative real-time PCR (qPCR) was conducted using SsoAdvanced Universal SYBR Green Supermix (Bio-Rad, Hercules, CA) on CFX384 real-time PCR detection system (Bio-Rad, Hercules, CA). Q-PCR started with 95° C. incubation for 3 min, followed by 39 cycles of 95° C. for 5 s and 60° C. for 30 s. The threshold cycle (CT) values were obtained and used to calculate the relative transcriptional level of target genes by 2^−ΔΔCT method with Cyclophilin (Cyp) as an internal control. […].
# Hematoxylin and eosin staining and Oil Red O staining. Livers were embedded into paraffin after being fixed by PFA, and then cut into 5 μm sections. After deparaffinization and hydration, liver sections were stained with hematoxylin for 5 min. After differentiation by 1% acid alcohol, liver sections were stained with 1% eosin for 3 min. Finally, liver sections were dehydrated and mounted with mounting media. For Oil Red O staining, liver frozen sections were prepared and fixed in 10% neutral buffered formalin for 10 min after air dry for 1 h. Liver sections were stained in Oil Red O working solution for 15 min after a quick dip in 60% isopropanol. Liver sections were then stained with hematoxylin for 3 min and covered with aqueous mounting gel. Liver sections were observed using slide scanner (Leica).
# as §2
# Serum lipid profile analysis. Serum triglyceride, AST, ALT, cholesterol, LDL, HDL, NEFA, and ALP were measured using DxC 700 AU Chemistry Analyzer (Beckman Coulter).
# Serum insulin and liver triglyceride analysis. Serum insulin and triglyceride levels were measured by using mouse insulin ELISA kit (Mercodia) and triglyceride assay kit (Abcam), respectively.
# [4] = ERα deficient primary hepatocytes
# [5] = DIO mice, 5 mg/kg twice per week, 5 weeks
# [6] = DIO mice, 5 mg/kg twice per week, 5 weeks, vs CNTR
sequence,measurement,setting,value
YGRKKRRQRRRTKASGMALLHEPLNRPQLKIPLERDSSKPAVYNY ({FITC}-YGRKKRRQRRRTKASGMALLHEPLNRPQLKIPLERDSSKPAVYNY) [AF1 peptide],interaction with IRS1 protein domains,IRS1 protein domains,interacted with the IRS1 1-300 domain
same,enhancement in insulin-stimulated AKT phosphorylation at S473,[1],210%
same,enhancement in insulin-stimulated AKT phosphorylation at T308,[1],82%
same,increase in IRS1 protein levels,[1]; FIG. 6J,90%
same,increase in IRS1 protein levels,[2]; [4],80%
same,increase in pAKT-S473 protein levels,[2]; [4],46%
same,increase in pAKT-T308 protein levels,[2]; [4],50%
same,rescue of ERα deficiency-induced insulin resistance,[2]; compared to ERαF/F hepatocytes,partially rescued
same,decrease in serum NEFA,[3]; DIO mice,21%
same,decrease in serum cholesterol,[3]; DIO mice,8%
same,decrease in serum triglyceride,[3]; DIO mice,21%
same,glucose tolerance,[3]; DIO mice,significantly improved
same,insulin sensitivity,[3]; DIO mice,significantly improved
same,serum HDL,[3]; DIO mice,decreases
same,serum LDL,[3]; DIO mice,decreases
same,serum insulin,[3]; DIO mice,not changed
same,overnight fasting blood glucose,[3]; [5],85.4 ± 0.2 mg/dL
same,random feeding blood glucose,[3]; [5],154.2 ± 4.7 mg/dL
same,decrease in overnight fasting blood glucose,[3]; [6],20%
same,decrease in random feeding blood glucose,[3]; [6],12%
same,liver fat accumulation,"[3]; DIO mice, H&E staining",ameliorated
same,decrease in pIRS1-302,"[3]; DIO mice, liver",32%
same,increase in IRS1,"[3]; DIO mice, liver",49%
same,increase in pAKT-308,"[3]; DIO mice, liver",51%
same,increase in pAKT-S473,"[3]; DIO mice, liver",100%
same,mRNA expression of FAO gene (Hadha),"[3]; DIO mice, liver, q-PCR",increased
same,mRNA expression of gluconeogenic gene (Pck1),"[3]; DIO mice, liver, q-PCR",significantly decreased
same,mRNA expression of inflammatory cytokine (Il6),"[3]; DIO mice, liver, q-PCR",significantly decreased
same,mRNA expression of lipogenic gene (Fasn),"[3]; DIO mice, liver, q-PCR",significantly decreased
same,serum ALP,"[3]; mouse, in vivo",not changed
same,serum ALT,"[3]; mouse, in vivo",not changed
same,serum AST,"[3]; mouse, in vivo",not changed
